# From US20050050594A1, “Tryptophan synthase as a site of herbicide action” (priority 1999, published 2005)
# Biological target: T1, Salmonella typhimurium tryptophan synthase holoenzyme (α2β2), TSα reaction (Salmonella typhimurium, UniProt P00929)
# T1 construct: made in house; host or cells: E. coli strain CB149pSTB7
# Experiment: Inhibition of tryptophan synthase by the TSα reaction, microtiter kinetic coupled enzyme assay
# Format: biochemical
# Outline: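 S. typhimurium α2β2 holoenzyme (~1.5 e.u.) in 50 mM Tris-Cl pH 7.8 with 60 mM serine, started with 100 μM IGP (1.5-2× Km), 37° C. Glyceraldehyde-3-P formation coupled to yeast GAPDH/1.6 mM NAD+, read at 340 nm. Inhibitor at 100 μM or 1:1 dilutions; some preincubated 24 h before IGP.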
# T1 sequence (P00929 whole entry): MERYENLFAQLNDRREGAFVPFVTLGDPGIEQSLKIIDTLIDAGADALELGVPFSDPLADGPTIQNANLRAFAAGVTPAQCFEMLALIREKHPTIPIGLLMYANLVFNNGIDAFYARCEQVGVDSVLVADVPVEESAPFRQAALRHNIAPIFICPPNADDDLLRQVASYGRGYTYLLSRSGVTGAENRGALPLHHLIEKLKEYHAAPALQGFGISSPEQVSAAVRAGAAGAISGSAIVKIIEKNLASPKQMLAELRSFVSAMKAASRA
# T1 sequence (P0A2K1 2-397, further chain): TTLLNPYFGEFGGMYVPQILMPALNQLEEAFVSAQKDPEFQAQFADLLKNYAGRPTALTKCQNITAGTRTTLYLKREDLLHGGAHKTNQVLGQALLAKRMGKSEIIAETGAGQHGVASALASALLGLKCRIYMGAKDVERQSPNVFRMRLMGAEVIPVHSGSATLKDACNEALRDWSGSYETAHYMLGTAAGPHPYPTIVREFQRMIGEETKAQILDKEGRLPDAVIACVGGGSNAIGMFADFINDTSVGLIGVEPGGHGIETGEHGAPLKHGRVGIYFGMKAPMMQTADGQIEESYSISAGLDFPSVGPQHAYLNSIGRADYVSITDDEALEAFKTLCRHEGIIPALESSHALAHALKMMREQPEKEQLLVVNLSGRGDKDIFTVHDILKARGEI
compound,measurement,setting,value
"O=P(O)(O)CCCCSc1ccccc1O [Compound 22, {4-[(o-hydroxyphenyl)thio]butyl}-phosphonic acid]",IC50,"I50 TS, TSα reaction of Salmonella holoenzyme",0.13 µM
same,IC50,TSα activity (Salmonella enzyme) I50,0.13 µM
